According to US4820718A, “N-alkyl-(2- or 5-substituted-2-methoxycarbonyl aminoalkyl furanyl)-substituted cyclimmonium salts and use thereof in PAF inhibition” (Sandoz Pharm. Corp., priority 1987, dated 1989):

What was measured:
[1] = tested on: PAF-induced human platelet aggregation; test: Platelet Aggregation Inhibition Assay (PAIA test), PAF-induced human platelet aggregation in vitro; assay type: cell-based; details: human platelet rich plasma
Method: All of the compounds of formula I are useful as platelet activating factor inhibitors as indicated by their ability to inhibit platelet activating factor (PAF)-induced human platelet aggregation in vitro according to the Platelet Aggregation Inhibition Assay test (PAIA test) as follows: Human subjects are kept aspirin free for one week and fasted overnight. Platelet rich plasma (PRP) is prepared by centrifugation (200×g.) of freshly drawn blood anti-coagulated with 0.38% sodium citrate (final concentration). Platelet count is adjusted to 250,000 per μl using platelet poor plasma (PPP) obtained by a second centrifugation (700×g.) of the blood sample. An aliquot (0.38 ml) of the PRP is dispensed into cuvettes and maintained at room temperature (22° C.) until used (but for not more than two hours). […] All aggregations are allowed to proceed for 6 minutes for the addition of the inducing agent. The aggregation response is quantitated by determining the area under the curve (AUC). The AUC calculated for the inducing agent alone is considered to be one hundred percent. The potential percent inhibition of the aggregation response is determined by dividing the AUC generated in the presence of the compound by the AUC of the inducing agent alone, multiplying by 100 and then subtracting from 100.

[2] = molecular target: T1, Human Platelet PAF Receptor (Homo sapiens, UniProt P25105); test: Human Platelet PAF Receptor Assay (Test A), inhibition of specific binding of [3H]-PAF to platelets; details: [3H]-PAF specific binding
T1 construct: 500 μl of the above-described platelets; endogenous in cells; host or cells: washed human platelets from blood of healthy donors
Method: Platelet rich plasma (PRP) is prepared by centrifugation (250×g) of the blood for 20 minutes at room temperature. […] The platelets are resuspended at […] in TT/BSA containing 1.4 mM CaCl2.2H2 O and 0.7 mM MgCl2.6H2 O. All of the tests are conducted in duplicate and each of the test compounds is evaluated at concentrations of 100, 50, 1 and 0.1 μM. For each determination, the following solutions are mixed: 500 μl of the above-described platelets; 10 μl of [^3 H]-PAF (40,000 counts per minute (cpm) to a final concentration of […]); and either 10 μl of the test compound at 50× the desired final concentration, 10 μl of vehicle (total bound), or 10 μl of 1.85×10^-5 M cold PAF (non-specifically bound), […] The supernatants are then aspirated into the same scintillation vials as before and 10 ml, of Scintiverse II (a liquid scintillation cocktail) is added to and mixed therewith. The pellets are resuspended in 500 μl of Scintiverse II and mixed well. […] The amount of specific binding is calculated as the difference in cpm between the total bound [^3 H]-PAF and non-specifically bound [^3 H]-PAF. The percent inhibition of specific binding is determined by dividing the cpm specifically bound in the presence of the test compound by the cpm specifically bound in total, multiplying by 100 and then subtracting from 100. An IC50 (50% inhibitory concentration) value is generated by evaluating the test compound over the full concentration range.

[3] = tested on: PAF-mediated broncho-constriction; test: PAF-induced Pulmonary Inflation Pressure (PIP) Increase test (Test B); assay type: in vivo, guinea pig; details: Cavia porcellus, iv, i.a., guinea pigs, PAF 100 ng/kg i.v., maximal PIP
Method: Male guinea pigs, weighing between 300 and 400 gm, are anesthetized, after which time trachea tube, carotid and jugular catheters are inserted. The test animal is then force ventilated employing a small animal Harvard respirator and the resistance to lung inflation (PIP) is measured utilizing a pressure transducer and recorder. The test compound is administered orally at 30 minutes prior to, intravenously (jugular) at 5 minutes prior to, or intraarterially at 1 to 5 minutes prior to the introduction of PAF. The PAF (C18 -Sandoz, Hanover) is dissolved in Tris-Tyrode's bovine serum albumin buffer and administered intravenously (jugular) at 100 ng/kg. Any blood pressure measurements taken are recorded from a transducer attached to the carotid catheter. Two responses are noted in the PIP recordings after the PAF is administered: (1) an immediate response which, in PAF-only treated test animals, averages out to between 70% and 80% more than the baseline PIP values. (This early response is also the greatest response and is, therefore, termed mazimal PIP); and (2) the long term (at least 30 minutes) PIP response which slowly decreases to baseline. A reading at 15 minutes after the administration of PAF is termed the endpoint PIP.

[4] = tested on: PAF-mediated extravasation; test: PAF-induced Extravasation test (Test C), hemoconcentration; assay type: in vivo, guinea pig; details: Cavia porcellus, iv, i.a., guinea pigs, PAF 100 ng/kg i.v., increase in hematocrit
Method: (§1) Male guinea pigs, weighing between 300 and 400 gm, are anesthetized, after which time a femoral catheter is inserted. The test compound is administered intraarterially at one to five minutes prior to the introduction of PAF. The PAF (C18 -Sandoz, Hanover) is dissolved in Tris-Tyrode's bovine serum albumin buffer and administered intravenously (jugular) at 100 ng/kg.
(§2) To determine the hematocrit value, which is employed to index hemoconcentration and is defined as the percent of packed red blood cells in a sample of blood which is centrifuged to separate plasma from the cellular components, blood samples are collected in 50 μl heparinized hematocrit tubes. These samples are taken just prior to the injection of PAF, one minute subsequent to the injection of PAF and every two minutes thereafter until 15 minutes has lapsed subsequent to the injection of PAF. The tubes are then centrifuged and the percent of packed red blood cells (hematocrit) is measured (PAF induces a maximal increase in hematocrit at 5 to 7 minutes subsequent to the injection of PAF). The percent increase in hematocrit over the value prior to the injection of PAF is calculated. The hematocrit values obtained with the test compound are compared to the hemoconcentration values obtained with PAF alone and are expressed as percent inhibition of percent increase in hematocrit. From the values obtained, an ED50 is generated.

[5] = tested on: PAF-induced bronchoconstriction; test: Decrease in inhibition of bronchoconstriction over time (Test I); assay type: in vivo, guinea pig; details: i.v., x times the ED50, time still inhibiting 50%
Method: Male guinea pigs, weighing between 300 and 400 gm, are anesthetized, after which time trachea tube, carotid and jugular catheters are inserted. The test animal is then force ventilated employing a small animal Harvard respirator and the resistance to lung inflation (PIP) is measured utilizing a pressure transducer and recorder. The test compound is administered orally at 30 minutes prior to, intravenously (jugular) at 5 minutes prior to, or intraarterially at 1 to 5 minutes prior to the introduction of PAF. The PAF (C18 -Sandoz, Hanover) is dissolved in Tris-Tyrode's bovine serum albumin buffer and administered intravenously (jugular) at 100 ng/kg. Any blood pressure measurements taken are recorded from a transducer attached to the carotid catheter. […] (This early response is also the greatest response and is, therefore, termed mazimal PIP); and (2) the long term (at least 30 minutes) PIP response which slowly decreases to baseline. A reading at 15 minutes after the administration of PAF is termed the endpoint PIP.
Thus, a decrease in inhibition of bronchoconstriction over time (Test I) can be measured by a modification of Test B described above wherein an amount of the test compound which is x times the ED50 for the compound is intravenously administered to the test animals. By observing the time at which the test compound still inhibits 50% of the bronchoconstriction caused by the PAF challenge, the rate of loss of the test compound can be determined employing the following equation: [formula]

[6] = tested on: PAF-induced hemoconcentration; test: Decrease in inhibition of hemoconcentration over time (Test J); assay type: in vivo, guinea pig; details: i.v., x times the ED50, time still inhibiting 50%
Method: as §1, §2
Similarly, a decrease in inhibition of hemoconcentration over time (Test J) can be measured by a modification of Test C described above wherein an amount of the test compound which is x times the ED50 for the compound is intravenously administered to the test animals. By observing the time at which the test compound still inhibits 50% of the hemoconcentration caused by the PAF challenge, the rate of loss of the test compound can be determined employing the above equation.

[7] = tested on: PAF-induced hypotension; test: PAF-induced hypotension test (Test D); assay type: in vivo, Wistar rat; details: for decrease in blood pressure: within 10 sec.; for ED50: Rattus norvegicus, iv, Test D, Wistar rats, PAF-induced blood pressure decrease
Method: Male Wistar rats, weighing approximately 300 gm, are anesthetized and their carotid arteries cannulated to enable their diastolic and systolic arterial blood pressure measurements to be recorded. PAF is then administered intravenously at either 100 or 500 ng/kg, and the blood pressure drop (within 10 sec.) and recovery time required to reach the pre-injection blood pressure level are measured. […] In order to measure the effectiveness of a compound for both the inhibition of blood pressure decreases and shortening of the recovery time, the test compound is administered intravenously over a range of between 5 and 7 dosage levels (1 or 2 test animals per dose) and between 1 and 5 minutes prior to the introduction of PAF to generate an ED50.

T1 sequence (P25105 whole entry): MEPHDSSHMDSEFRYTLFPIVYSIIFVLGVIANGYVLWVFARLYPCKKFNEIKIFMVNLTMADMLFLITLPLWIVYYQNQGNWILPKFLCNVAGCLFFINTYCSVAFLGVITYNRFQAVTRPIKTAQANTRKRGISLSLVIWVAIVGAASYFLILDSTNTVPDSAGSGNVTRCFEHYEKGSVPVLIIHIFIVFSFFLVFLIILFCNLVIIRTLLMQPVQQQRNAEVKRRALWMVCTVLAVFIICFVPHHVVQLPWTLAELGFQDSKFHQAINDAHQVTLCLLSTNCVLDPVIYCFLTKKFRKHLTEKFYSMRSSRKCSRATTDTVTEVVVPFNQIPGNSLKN

CCCCCCCCCCCCCCCCCCNC(=O)OC[C@@]1(C)CC[C@@](C)(COC(=O)N(Cc2cccc[n+]2CC)C(C)=O)O1 (relative stereo) [Example 9, Cis-2-[acetyl[[tetrahydro-2,5-dimethyl-5-[[[[(octadecyl)amino]carbonyl]oxy]methyl]furan-2-yl]methoxycarbonyl]aminomethyl]-1-ethylpyridinium chloride]
IC50 [1]: 350 nM | IC50 [2]: 60 nM | ED50 [3]: 20 µg/kg | ED50 [4]: 15 µg/kg | Rate of loss [5]: 0.88 µg/kg/min | Rate of loss [6]: 0.92 µg/kg/min

1-O-alkyl-2-acetyl-sn-glyceryl-3-phosphoryl-choline [PAF, reference compound]
decrease in blood pressure ([7]; PAF 100 ng/kg i.v.): 30% | recovery time to pre-injection blood pressure level ([7]; PAF 500 ng/kg i.v.): 10 min | decrease in blood pressure ([7]; PAF 500 ng/kg i.v.): 52%

CCCCCCCCCCCCCCCCCCNC(=O)OCC1(COC(=O)N(Cc2cccc[n+]2CC)C(=O)c2ccccc2)CCCO1 (stereo not shown) [Example 7, 2-[Benzoyl[[tetrahydro-2-[[[[(octadecyl)amino]carbonyl]oxy]methyl]furan-2-yl]-methoxycarbonyl]aminomethyl]-1-ethylpyridinium chloride]
IC50 [1]: 840 nM | IC50 [2]: 16 nM

CCCCCCCCCCCCCCCCCCN(C(C)=O)C(=O)OCC1(COC(=O)N(Cc2cccc[n+]2CC)C(C)=O)CCCO1 (stereo not shown) [Example 5, 2-[Acetyl[[tetrahydro-2-[[[[[acetyl(octadecyl)amino]carbonyl]oxy]methyl]furan-2-yl]methoxycarbonyl]aminomethyl]-1-ethylpyridinium chloride]
IC50 [1]: 48 nM | IC50 [2]: 2 nM | ED50 [3]: 4 µg/kg | ED50 [4]: 4 µg/kg | ED50 [7]: 4.5 µg/kg

CCCCCCCCCCCCCCCCCCNC(=O)OCC1(COC(=O)NCCCCCc2cccc[n+]2CC)CCCO1.[Cl-] (stereo not shown) [Example 3, 2-[5-[[[Tetrahydro-2-[[[[(octadecyl)-amino]carbonyl]oxy]methyl]furan-2-yl]methoxycarbonyl]amino]pentyl]-1-ethylpyridinium chloride]
IC50 [1]: 300 nM | IC50 [2]: 20 nM | ED50 [3]: 5 µg/kg | ED50 [4]: 8.5 µg/kg | ED50 [7]: 27 µg/kg | Rate of loss [5]: 0.66 µg/kg/min | Rate of loss [6]: 0.65 µg/kg/min

CCCCCCCCCCCCCCCCCCNC(=O)OC[C@@]1(C)CC[C@@](C)(COC(=O)NCc2cc(C)cc(C)[n+]2C)O1 (relative stereo) [Example 11, Cis-2-[[[tetrahydro-2,5-dimethyl-5-[[[[(octadecyl)amino]carbonyl]oxy]methyl]furan-2-yl]methoxycarbonyl]aminomethyl]-1,4,6-trimethylpyridinium chloride]
IC50 [1]: 2200 nM | IC50 [2]: 450 nM

CCCCCCCCCCCCCCCCCCNC(=O)OCC1(COC(=O)N(Cc2cccc[n+]2CC)C(=O)C(C)(C)C)CCCO1 (stereo not shown) [Example 6, 2-[Trimethylacetyl[[tetrahydro-2-[[[[(octadecyl)amino]carbonyl]oxy]methyl]furan-2-yl]methoxycarbonyl]aminomethyl]-1-ethylpyridinium chloride]
IC50 [1]: 500 nM | IC50 [2]: 85 nM

CCCCCCCCCCCCCCCCCCNC(=O)OC[C@@]1(C)CC[C@@](C)(COC(=O)NCc2cccc[n+]2CC)O1 (relative stereo) [Example 10, Cis-2-[[[tetrahydro-5-[[[[(octadecyl)amino]carbonyl]oxy]methyl]-2,5-dimethyl-furan-2-yl]methoxycarbonyl]aminomethyl]-1-ethylpyridinium chloride]
IC50 [1]: 550 nM | IC50 [2]: 560 nM | ED50 [3]: 150 µg/kg | ED50 [4]: 60 µg/kg | Rate of loss [5]: 30.0 µg/kg/min | Rate of loss [6]: 10.21 µg/kg/min

CCCCCCCCCCCCCCCCCCNC(=O)OCC1(COC(=O)NCc2cccc[n+]2CC)CCCO1 (stereo not shown) [Example 2, 2-[[[Tetrahydro-2-[[[[(octadecyl)amino]carbonyl]oxy]methyl]furan-2-yl]methoxycarbonyl]aminomethyl]-1-ethylpyridinium chloride]
IC50 [1]: 16000 nM | IC50 [2]: 800 nM

CCCCCCCCCCCCCCCCCCNC(=O)OCC1(COC(=O)N(CCCCCc2cccc[n+]2CC)C(C)=O)CCCO1.[Cl-] (stereo not shown) [Example 4, 2-[5-[Acetyl[[tetrahydro-2-[[[[(octadecyl)-amino]carbonyl]oxy]methyl]furan-2-yl]methoxycarbonyl]amino]pentyl]-1-ethylpyridinium chloride]
IC50 [1]: 130 nM | IC50 [2]: 8 nM | ED50 [3]: 15 µg/kg | ED50 [4]: 17 µg/kg | Rate of loss [5]: 0.35 µg/kg/min | Rate of loss [6]: 1.10 µg/kg/min

CCCCCCCCCCCCCCCCCCNC(=O)OC[C@@]1(C)CC[C@@](C)(COC(=O)N(C)Cc2cccc[n+]2C)O1 (relative stereo) [Example 12, Cis-2-[methyl[[tetrahydro-2,5-dimethyl-5-[[[[(octadecyl)amino]carbonyl]oxy]methyl]furan-2-yl]methoxycarbonyl]aminomethyl]-1-methylpyridinium chloride]
IC50 [1]: 2000 nM | IC50 [2]: 2200 nM

CCCCCCCCCCCCCCCCCCOCC1(COC(=O)N(Cc2cccc[n+]2CC)C(C)=O)CCCO1 (stereo not shown) [Example 8, 2-[Acetyl[[tetrahydro-2-[(octadecyloxy)methyl]furan-2-yl]methoxycarbonyl]aminomethyl]-1-ethylpyridinium chloride]
IC50 [1]: 860 nM | IC50 [2]: 14 nM

CCCCCCCCCCCCCCCCCCNC(=O)OCC1(COC(=O)N(Cc2cccc[n+]2CC)C(C)=O)CCCO1 (stereo not shown) [Example 1, 2-[Acetyl[[tetrahydro-2-[[[[(octadecyl)-amino]carbonyl]oxy]methyl]furan-2-yl]-methoxycarbonyl]aminomethyl]-1-ethylpyridinium chloride]
IC50 [1]: 40 nM | IC50 [2]: 10 nM | ED50 [3]: 2.5 µg/kg | ED50 [4]: 2.8 µg/kg | ED50 [7]: 3 µg/kg | Rate of loss [5]: 0.3 µg/kg/min | Rate of loss [6]: 0.35 µg/kg/min
